Experimental findings from ChEMBL document CHEMBL2074087, “Inhibition of the P-glycoprotein- and multidrug resistance protein-mediated efflux of anthracyclines and calceinacetoxymethyl ester by PAK-104P” (Eur J Pharmacol, 2000) are described below.

For this assay, the target named is ATP-dependent translocase ABCB1 (Homo sapiens, UniProt P08183). Nature of the assay: TP_TRANSPORTER: inhibition of Hydroxydoxorubicin efflux in K562/Adr cells. It is filed as functional, cell-based.
Sequence of ATP-dependent translocase ABCB1 (P08183 whole entry): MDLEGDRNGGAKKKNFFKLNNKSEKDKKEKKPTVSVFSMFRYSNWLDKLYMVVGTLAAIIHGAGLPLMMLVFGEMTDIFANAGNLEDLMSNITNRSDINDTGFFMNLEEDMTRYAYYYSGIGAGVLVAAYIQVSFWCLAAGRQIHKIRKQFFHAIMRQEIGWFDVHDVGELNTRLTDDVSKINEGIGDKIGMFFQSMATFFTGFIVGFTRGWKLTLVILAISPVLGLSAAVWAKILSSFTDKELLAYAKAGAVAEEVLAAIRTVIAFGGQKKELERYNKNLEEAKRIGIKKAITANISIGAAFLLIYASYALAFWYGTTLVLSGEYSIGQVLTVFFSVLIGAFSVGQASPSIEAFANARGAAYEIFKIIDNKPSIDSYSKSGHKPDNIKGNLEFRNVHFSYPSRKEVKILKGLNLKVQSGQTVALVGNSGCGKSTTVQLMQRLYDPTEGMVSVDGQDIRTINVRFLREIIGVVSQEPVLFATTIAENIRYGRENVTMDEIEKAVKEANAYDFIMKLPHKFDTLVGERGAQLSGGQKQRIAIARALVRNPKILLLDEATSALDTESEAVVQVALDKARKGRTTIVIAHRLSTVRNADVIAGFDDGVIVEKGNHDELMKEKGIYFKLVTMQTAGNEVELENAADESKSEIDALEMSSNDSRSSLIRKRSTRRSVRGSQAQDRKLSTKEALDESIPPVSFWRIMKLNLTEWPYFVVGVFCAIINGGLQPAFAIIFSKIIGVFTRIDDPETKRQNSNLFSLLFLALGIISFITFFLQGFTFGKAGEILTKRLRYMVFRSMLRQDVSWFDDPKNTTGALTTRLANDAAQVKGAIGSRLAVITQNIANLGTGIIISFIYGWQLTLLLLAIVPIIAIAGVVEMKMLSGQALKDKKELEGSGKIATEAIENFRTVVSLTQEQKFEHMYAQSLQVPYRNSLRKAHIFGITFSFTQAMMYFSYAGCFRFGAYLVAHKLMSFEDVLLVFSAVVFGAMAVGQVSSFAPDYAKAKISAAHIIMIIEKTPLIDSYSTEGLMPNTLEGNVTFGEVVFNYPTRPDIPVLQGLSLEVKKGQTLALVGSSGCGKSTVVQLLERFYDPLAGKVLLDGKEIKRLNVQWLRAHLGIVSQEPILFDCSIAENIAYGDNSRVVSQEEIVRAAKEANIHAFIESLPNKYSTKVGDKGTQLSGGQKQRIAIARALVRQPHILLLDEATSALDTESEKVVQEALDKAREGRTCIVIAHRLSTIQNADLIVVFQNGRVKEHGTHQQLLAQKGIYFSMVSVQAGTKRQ

In the case of `Cc1nc(C)c(P2(=O)O[C@H](C)C[C@@H](C)O2)c(-c2cccc([N+](=O)[O-])c2)c1C(=O)OCCN1CCN(C(c2ccccc2)c2ccccc2)CC1` (stereo partly specified), the inhibitory constant (Ki) – broadly, the equilibrium dissociation constant of an inhibitor or competing ligand from its target – turned out to be 210 nM.
